Experimental data: ChEMBL document CHEMBL1153558, “In vitro antifungal susceptibilities of five species of sporothrix” (2008)
≈ marks a conversion by molar mass, not a printed value. Numbered stars: 1 amine (or outer) side, 2 acyl side, 3 side chain; on linkers, the order of the positions; unused ones are H or OH. Bridge positions count the residues as written; N and C are the ends. Square brackets hold non-standard residues; d marks the D form. Peptide text beside a SMILES is read from it. * marks the point of attachment. hTyr(3S-OH,4S-OH,3'-OSO3H) = N[C@H](C(=O)O)[C@H](O)[C@@H](O)c1ccc(O)c(OS(=O)(=O)O)c1; Orn(4R-OH,5R-OH) = O=C([C@H](C[C@@H](O)[C@@H](O)N[*:3])N[*:1])[*:2]; Pro(3S-OH,4S-Me) = C[C@H]1CN[C@H](C(=O)O)[C@H]1O; X1 = CCCCCOc1ccc(-c2cc(-c3ccc(C(=O)*)cc3)no2)cc1; Gln(3R-OH) = NC(=O)C[C@@H](O)[C@H](N)C(=O)O; Hyp = O=C(O)[C@@H]1C[C@@H](O)CN1

Legend:
Format in all cases: functional
[1] = test system: Sporothrix; test: Antifungal activity against Sporothrix mexicana after 72 hrs by microdilution method
[2] = test system: Sporothrix; test: Antifungal activity against Sporothrix brasiliensis after 72 hrs by microdilution method
[3] = test system: Sporothrix globosa; test: Antifungal activity against Sporothrix globosa after 72 hrs by microdilution method
[4] = test system: Sporothrix albicans; test: Antifungal activity against Sporothrix albicans after 72 hrs by microdilution method
[5] = test system: Sporothrix schenckii; test: Antifungal activity against Sporothrix schenckii after 72 hrs by microdilution method

| SMILES | MIC [1] | MIC50 [2] | MIC90 [2] | MIC50 [3] | MIC90 [3] | MIC50 [4] | MIC90 [4] | MIC50 [5] | MIC90 [5] | MIC [2] | MIC [3] | MIC [4] | MIC [5] |
| --- | --- | --- | --- | --- | --- | --- | --- | --- | --- | --- | --- | --- | --- |
| C[C@@H](n1cnc2cc(Cl)ccc2c1=O)[C@](O)(Cn1cncn1)c1ccc(F)cc1F [ALBACONAZOLE] | 32 µg/mL (≈ 74.1 µM) | 1 µg/mL (≈ 2.32 µM) | 4 µg/mL (≈ 9.26 µM) | 16 µg/mL (≈ 37.1 µM) | 16 µg/mL (≈ 37.1 µM) | 16 µg/mL (≈ 37.1 µM) | 32 µg/mL (≈ 74.1 µM) | 16 µg/mL (≈ 37.1 µM) | 32 µg/mL (≈ 74.1 µM) | – | – | – | – |
| C[C@@H]1[C@H](O)[C@@H](C)/C=C/C=C/C=C/C=C/C=C/C=C/C=C/[C@H](O[C@@H]2O[C@H](C)[C@@H](O)[C@H](N)[C@@H]2O)C[C@@H]2O[C@](O)(C[C@@H](O)C[C@@H](O)[C@H](O)CC[C@@H](O)C[C@@H](O)CC(=O)O[C@H]1C)C[C@H](O)[C@H]2C(=O)O [AMPHOTERICIN B] | 16 µg/mL (≈ 17.3 µM) | 2 µg/mL (≈ 2.16 µM) | 4 µg/mL (≈ 4.33 µM) | 4 µg/mL (≈ 4.33 µM) | 8 µg/mL (≈ 8.66 µM) | 4 µg/mL (≈ 4.33 µM) | 8 µg/mL (≈ 8.66 µM) | 4 µg/mL (≈ 4.33 µM) | 4 µg/mL (≈ 4.33 µM) | – | – | – | – |
| Clc1cc(Cl)c2c(c1)CCc1ccccc1C2n1ccnc1 (stereo not given) [EBERCONAZOLE] | 32 µg/mL (≈ 97.2 µM) | 0.25 µg/mL (≈ 0.759 µM) | 1 µg/mL (≈ 3.04 µM) | 2 µg/mL (≈ 6.07 µM) | 4 µg/mL (≈ 12.1 µM) | 8 µg/mL (≈ 24.3 µM) | 16 µg/mL (≈ 48.6 µM) | 2 µg/mL (≈ 6.07 µM) | 8 µg/mL (≈ 24.3 µM) | – | – | – | – |
| OC(Cn1cncn1)(Cn1cncn1)c1ccc(F)cc1F [FLUCONAZOLE] | 128 µg/mL (≈ 418 µM) | 128 µg/mL (≈ 418 µM) | 128 µg/mL (≈ 418 µM) | 128 µg/mL (≈ 418 µM) | 128 µg/mL (≈ 418 µM) | 128 µg/mL (≈ 418 µM) | 128 µg/mL (≈ 418 µM) | 128 µg/mL (≈ 418 µM) | 128 µg/mL (≈ 418 µM) | 128 µg/mL (≈ 418 µM) | 128 µg/mL (≈ 418 µM) | 128 µg/mL (≈ 418 µM) | 128 µg/mL (≈ 418 µM) |
| Nc1nc(=O)[nH]cc1F [FLUCYTOSINE] | 128 µg/mL (≈ 992 µM) | 16 µg/mL (≈ 124 µM) | 128 µg/mL (≈ 992 µM) | 64 µg/mL (≈ 496 µM) | 128 µg/mL (≈ 992 µM) | 128 µg/mL (≈ 992 µM) | 128 µg/mL (≈ 992 µM) | 16 µg/mL (≈ 124 µM) | 128 µg/mL (≈ 992 µM) | – | – | 128 µg/mL (≈ 992 µM) | – |
| CCC(C)n1ncn(-c2ccc(N3CCN(c4ccc(OCC5COC(Cn6cncn6)(c6ccc(Cl)cc6Cl)O5)cc4)CC3)cc2)c1=O (stereo not given) [ITRACONAZOLE] | 32 µg/mL (≈ 45.3 µM) | 0.5 µg/mL (≈ 0.709 µM) | 1 µg/mL (≈ 1.42 µM) | 32 µg/mL (≈ 45.3 µM) | 32 µg/mL (≈ 45.3 µM) | 32 µg/mL (≈ 45.3 µM) | 32 µg/mL (≈ 45.3 µM) | 4 µg/mL (≈ 5.67 µM) | 32 µg/mL (≈ 45.3 µM) | 0.5 µg/mL (≈ 0.709 µM) | – | 32 µg/mL (≈ 45.3 µM) | – |
| CC(=O)N1CCN(c2ccc(OCC3COC(Cn4ccnc4)(c4ccc(Cl)cc4Cl)O3)cc2)CC1 (stereo not given) [KETOCONAZOLE] | 4 µg/mL (≈ 7.53 µM) | 0.125 µg/mL (≈ 0.235 µM) | 0.25 µg/mL (≈ 0.47 µM) | 1 µg/mL (≈ 1.88 µM) | 2 µg/mL (≈ 3.76 µM) | 4 µg/mL (≈ 7.53 µM) | 4 µg/mL (≈ 7.53 µM) | 1 µg/mL (≈ 1.88 µM) | 2 µg/mL (≈ 3.76 µM) | – | – | – | – |
| CCCCCOc1ccc(-c2cc(-c3ccc(C(=O)N[C@H]4C[C@@H](O)[C@@H](O)NC(=O)[C@@H]5[C@@H](O)[C@@H](C)CN5C(=O)[C@H]([C@H](O)CC(N)=O)NC(=O)[C@H]([C@H](O)[C@@H](O)c5ccc(O)c(OS(=O)(=O)O)c5)NC(=O)[C@@H]5C[C@@H](O)CN5C(=O)[C@H]([C@@H](C)O)NC4=O)cc3)no2)cc1 [MICAFUNGIN] (X1-[Orn(4R-OH,5R-OH)]T[Hyp][hTyr(3S-OH,4S-OH,3'-OSO3H)][Gln(3R-OH)][Pro(3S-OH,4S-Me)]; lactam 1-C) | 256 µg/mL (≈ 202 µM) | 256 µg/mL (≈ 202 µM) | 256 µg/mL (≈ 202 µM) | 256 µg/mL (≈ 202 µM) | 256 µg/mL (≈ 202 µM) | 256 µg/mL (≈ 202 µM) | 256 µg/mL (≈ 202 µM) | 256 µg/mL (≈ 202 µM) | 256 µg/mL (≈ 202 µM) | 256 µg/mL (≈ 202 µM) | 256 µg/mL (≈ 202 µM) | 256 µg/mL (≈ 202 µM) | 256 µg/mL (≈ 202 µM) |
| CC[C@@H]([C@H](C)O)n1ncn(-c2ccc(N3CCN(c4ccc(OC[C@@H]5CO[C@@](Cn6cncn6)(c6ccc(F)cc6F)C5)cc4)CC3)cc2)c1=O [POSACONAZOLE] | 32 µg/mL (≈ 45.7 µM) | 0.5 µg/mL (≈ 0.713 µM) | 1 µg/mL (≈ 1.43 µM) | 2 µg/mL (≈ 2.85 µM) | 8 µg/mL (≈ 11.4 µM) | 2 µg/mL (≈ 2.85 µM) | 2 µg/mL (≈ 2.85 µM) | 1 µg/mL (≈ 1.43 µM) | 8 µg/mL (≈ 11.4 µM) | – | – | – | – |
| C[C@@H](c1nc(-c2ccc(C#N)cc2)cs1)[C@](O)(Cn1cncn1)c1ccc(F)cc1F [RAVUCONAZOLE] | 32 µg/mL (≈ 73.1 µM) | 0.5 µg/mL (≈ 1.14 µM) | 1 µg/mL (≈ 2.29 µM) | 8 µg/mL (≈ 18.3 µM) | 16 µg/mL (≈ 36.6 µM) | 16 µg/mL (≈ 36.6 µM) | 32 µg/mL (≈ 73.1 µM) | 8 µg/mL (≈ 18.3 µM) | 16 µg/mL (≈ 36.6 µM) | – | – | – | – |
| CN(C/C=C/C#CC(C)(C)C)Cc1cccc2ccccc12 [TERBINAFINE] | 0.5 µg/mL (≈ 1.72 µM) | 0.06 µg/mL (≈ 0.206 µM) | 0.25 µg/mL (≈ 0.858 µM) | 0.25 µg/mL (≈ 0.858 µM) | 0.5 µg/mL (≈ 1.72 µM) | 0.5 µg/mL (≈ 1.72 µM) | 4 µg/mL (≈ 13.7 µM) | 0.25 µg/mL (≈ 0.858 µM) | 0.5 µg/mL (≈ 1.72 µM) | 0.06 µg/mL (≈ 0.206 µM) | – | – | – |
| C[C@@H](c1ncncc1F)[C@](O)(Cn1cncn1)c1ccc(F)cc1F [VORICONAZOLE] | 16 µg/mL (≈ 45.8 µM) | 4 µg/mL (≈ 11.5 µM) | 8 µg/mL (≈ 22.9 µM) | 32 µg/mL (≈ 91.6 µM) | 32 µg/mL (≈ 91.6 µM) | 8 µg/mL (≈ 22.9 µM) | 32 µg/mL (≈ 91.6 µM) | 32 µg/mL (≈ 91.6 µM) | 32 µg/mL (≈ 91.6 µM) | – | – | – | – |
